# Patent US20210095293A1, “METHODS OF TREATING CANCERS WITH GPR132 INHIBITORS” (The Board of Regents of the University of Texas System, priority 2016, published 2021)
# Key:
# Assay type in all cases: cell-based, mouse
# macrophages = test: M2 marker expression in macrophages (Western blot, RT-qPCR, flow cytometry)
# Method: After blocking with 10% BSA for 10 min, cells were incubated with anti-CD206 (Rabbit polyclonal, Abcam) or anti-Gpr132 (Rabbit polyclonal, Sigma) antibodies (1:100) for 30 min at 4° C., washed with cold PBS, and then incubated with FITC-conjugated secondary antibodies (1:100) for 30 min at 4° C. After washing twice using cold PBS, cells were analyzed by flow cytometer (Becton Dickinson). RNA was isolated from cells or mouse tissues using Trizol (Invitrogen) following the manufacturer's instructions. RNA (200-500 ng) was first treated with RNase-free DNase I using the DNA-free kit (Ambion) to remove all genomic DNA, and then reverse-transcribed into cDNA using an ABI High Capacity cDNA RT Kit (Invitrogen). The cDNA was analyzed using real-time quantitative PCR (SYBR Green, Invitrogen) with an Applied Biosystems 7900 Sequence Detection System. Each reaction was performed in triplicate in a 384-well format. The expression of each gene was normalized by that of mouse ribosomal protein L19. Samples of 20 μg protein were applied to SDS polyacrylamide gels. After protein transfer, membranes were incubated with antibodies for […] (rabbit polyclonal, Santa Cruz Biotechnology), CD206, Gpr132, or β-actin (mouse monoclonal, Sigma) (1:1000) overnight at 4° C. Membranes were washed, and then incubated with HRP-conjugated secondary antibodies (1:1000) for 1 hr at room temperature before signal detection by chemiluminescence (Pierce). Densitometric quantification was performed by Image-Pro Plus 6.0 software (Media Cybernetics). PathScan Akt Signaling Antibody Array (Cell Signaling) was incubated with macrophage proteins and analyzed following kit instructions.
# [1] = system: breast cancer cells (EO771, 4T1.2); test: Boyden chamber assay, cancer cell invasion (matrigel)
# Method: (§1) FIGS. 11A-11C. Lactate-activated macrophage promotes cancer cell adhesion, migration and invasion via Gpr132. (FIG. 11A) Adherence assays. 4T1.2 cells were suspended in fibronectin ([…]) pre-coated plates with CM from spleen-derived macrophages (mf) that were treated with 4T1.2 CM or lactate (5 mM) with or without Gpr132 antibody (6 mg/ml) or normal IgG (6 mg/ml) for 10 min. The adhered cells were stained with crystal violet, dissolved in 1% Triton X-100 and measured by OD590. (FIGS. 11B-11C) Boyden chamber assay of cancer cell migration and invasion. 4T1.2 cells (B) or EO771 cells (FIG. 11C) were plated on the upper chamber inserts, with untreated (Control), 4T1.2 CM-activated or lactate-activated spleen-derived WT or Gpr132-KO macrophages plated in the lower chambers. For invasion assay, the inserts were pre-coated with 60 μl matrigel. After migration for 6 hrs (FIG. 11B) or invasion for 24 hrs (FIG. 11C), the migrated or invaded cells were stained with crystal violet and counted as cells per field of view under microscope (n=3-4); For (FIG. 11C), the first bar of each data set of the bar graphs represents the control mf, and the second bar represents Gpr132KO; *p<0.05; **p<0.01; ***p<0.005; ****p<0.001. Scale bar, 500 μm.
# FIGS. 23A-23B. Cancer cell-derived lactate activates macrophages to promote cancer cell migration and invasion via Gpr132. (FIGS. 23A-23B) Boyden chamber assay. EO771 or 4T1.2 cells were cultured in the presence or absence of oxamic acid (90 mM) for 3 days. CM was harvested after the cells were cultured for another 24 hrs without oxamic acid. […] After migration for 6 hrs (FIG. 23A) or invasion for 24 hrs (FIG. 23B), the migrated or invaded cells were stained with crystal violet and counted as cells per field of view under microscope (n=3-4); for (FIG. 23A), the bars in each data set of the bar graph represent, from left to right, control, EO771, Oxamic acid, and Oxamic acid+Lactate; for (FIG. 23B), the bars in each data set of the bar graph represent, from left to right, control, 4T1.2CM, Oxamic acid, and Oxamic acid+Lactate; *p<0.05; ****p<0.001. […]
# 4T1.2 cells = test: adherence assay of breast cancer cells to fibronectin; conditions: macrophages activated by 4T1.2 CM or lactate (5 mM); vs untreated control macrophages
# Method: as §1, with “Scale bar, 500 μm.” left out
# Cancer cells were treated with the conditioned medium from indicated macrophage for 2 hrs. Adherence of treated breast cancer cells to fibronectin was evaluated as described.
smiles,measurement,setting,value
CC(O)C(=O)O (centres unmarked) [lactate],"expression of M2 markers (CD206, GM-CSF, CCL17) in WT macrophages","macrophages; exogenous lactate 5 mM 24 hrs (Western) or 25 mM 6 hrs (RT-qPCR), WT",increased
same,effects on M2 markers in Gpr132-KO macrophages,"macrophages; exogenous lactate, Gpr132-KO",absent or largely attenuated
same,"breast cancer cell invasion induced by activated macrophages, Gpr132 deletion","[1]; EO771 cells, 24 hrs, Gpr132-KO macrophages",completely abrogated
same,rescue of invasion by addition to oxamic acid-pretreated cancer cell CM,"[1]; exogenous lactate, WT macrophages",restored
same,adherence of 4T1.2 cells to fibronectin with CM from activated macrophages,4T1.2 cells,significantly increased
